# Literature values, collected in patent publication US10466244B2, “Methods and materials for identifying therapeutic response in chronic myeloid leukemia” (RAJIV GANDHI CENTRE FOR BIOTECHNOLOGY, priority 2013, dated 2019).
# Test system: BCR-ABL
# Conditions: relative to imatinib
smiles,measurement,value
"Cc1cn(-c2cc(NC(=O)c3ccc(C)c(Nc4nccc(-c5cccnc5)n4)c3)cc(C(F)(F)F)c2)cn1 [Nilotinib, nilotinib]",increased potency compared with imatinib against BCR-ABL,20- to 30 fold
